Assay results published in the NIST ThermoML archive (doi:10.1016/j.fluid.2017.06.019).
± gives the expanded uncertainty stated by the source.

Details: Coaxial cylinder method

CCC [propane]
thermal conductivity [W/m/K]
Details | 366.45 K | 367.32 K
4010 kPa, Gas | – | 0.04654 ± 0.012
4012 kPa, Gas | – | 0.04665 ± 0.012
4013 kPa, Liquid | 0.1345 ± 0.012 | –
4014 kPa, Gas | – | 0.04687 ± 0.0077
4014 kPa, Liquid | 0.132 ± 0.012 | –
4015 kPa, Liquid | 0.1298 ± 0.012 | –
4016 kPa, Liquid | 0.127 ± 0.012 | –
4017 kPa, Liquid | 0.1241 ± 0.012 | –
4018 kPa, Liquid | 0.1223 ± 0.011 | –
4019 kPa, Liquid | 0.1202 ± 0.011 | –
4020 kPa, Liquid | 0.1175 ± 0.011 | –
4021 kPa, Liquid | 0.1145 ± 0.011 | –
4022 kPa, Liquid | 0.1126 ± 0.011 | –
4023 kPa, Liquid | 0.1108 ± 0.01 | –
4024 kPa, Liquid | 0.1089 ± 0.01 | –
4025 kPa, Gas | – | 0.04792 ± 0.012
4025 kPa, Liquid | 0.107 ± 0.01 | –
4026 kPa, Gas | – | 0.05076 ± 0.011
4026 kPa, Liquid | 0.1052 ± 0.01 | –
4027 kPa, Gas | – | 0.05394 ± 0.011
4027 kPa, Liquid | 0.1035 ± 0.01 | –
4028 kPa, Gas | – | 0.05642 ± 0.01
4028 kPa, Liquid | 0.1018 ± 0.0097 | –
4029 kPa, Gas | – | 0.05957 ± 0.0093
4029 kPa, Liquid | 0.1003 ± 0.0097 | –
4030 kPa, Gas | – | 0.06288 ± 0.0088
4030 kPa, Liquid | 0.09876 ± 0.0096 | –
4031 kPa, Gas | – | 0.06655 ± 0.0083
4031 kPa, Liquid | 0.09718 ± 0.0096 | –
4032 kPa, Gas | – | 0.06997 ± 0.0078
4032 kPa, Liquid | 0.09578 ± 0.0094 | –
4033 kPa, Gas | – | 0.07414 ± 0.0075
4033 kPa, Liquid | 0.09438 ± 0.0091 | –
4034 kPa, Gas | – | 0.07824 ± 0.0072
4034 kPa, Liquid | 0.0931 ± 0.0089 | –
4035 kPa, Gas | – | 0.08231 ± 0.007
4035 kPa, Liquid | 0.09185 ± 0.0087 | –
4036 kPa, Gas | – | 0.08718 ± 0.0069
4036 kPa, Liquid | 0.09064 ± 0.0086 | –
4037 kPa, Gas | – | 0.09169 ± 0.0069
4037 kPa, Liquid | 0.08946 ± 0.0083 | –
4038 kPa, Gas | – | 0.09661 ± 0.0069
4038 kPa, Liquid | 0.0883 ± 0.008 | –
4039 kPa, Gas | – | 0.1018 ± 0.007
4039 kPa, Liquid | 0.08718 ± 0.0079 | –
4040 kPa, Gas | – | 0.1068 ± 0.0071
4040 kPa, Liquid | 0.08608 ± 0.0078 | –
4041 kPa, Gas | – | 0.1118 ± 0.0073
4042 kPa, Gas | – | 0.1171 ± 0.0075
4043 kPa, Gas | – | 0.1226 ± 0.0077
4044 kPa, Gas | – | 0.1282 ± 0.008
4045 kPa, Gas | – | 0.134 ± 0.0084
4045 kPa, Liquid | 0.08137 ± 0.0072 | –
4046 kPa, Gas | – | 0.1397 ± 0.0087
4047 kPa, Gas | – | 0.145 ± 0.009
4048 kPa, Gas | – | 0.1514 ± 0.0094
4050 kPa, Gas | – | 0.1645 ± 0.01
4050 kPa, Liquid | 0.0775 ± 0.0069 | –
4051 kPa, Gas | – | 0.1714 ± 0.011
4052 kPa, Gas | – | 0.1781 ± 0.011
4053 kPa, Gas | – | 0.1856 ± 0.012
4054 kPa, Gas | – | 0.1925 ± 0.012
4055 kPa, Gas | – | 0.1998 ± 0.016
4055 kPa, Liquid | 0.07438 ± 0.0066 | –
4056 kPa, Gas | – | 0.2078 ± 0.018
4057 kPa, Gas | – | 0.2153 ± 0.018
4057 kPa, Liquid | 0.07324 ± 0.0066 | –
4058 kPa, Gas | – | 0.2233 ± 0.019
4059 kPa, Gas | – | 0.2315 ± 0.019
4060 kPa, Liquid | – | 0.2315 ± 0.017
4061 kPa, Liquid | – | 0.2164 ± 0.016
4062 kPa, Liquid | – | 0.2079 ± 0.015
4063 kPa, Liquid | – | 0.1998 ± 0.014
4064 kPa, Liquid | – | 0.1925 ± 0.014
4065 kPa, Liquid | 0.06968 ± 0.0056 | 0.1857 ± 0.013
4070 kPa, Liquid | 0.06809 ± 0.0052 | –
4075 kPa, Liquid | 0.0668 ± 0.0048 | –
4080 kPa, Liquid | 0.0658 ± 0.0046 | –
4085 kPa, Liquid | 0.06508 ± 0.0045 | –
4090 kPa, Liquid | 0.06449 ± 0.0044 | –
4095 kPa, Liquid | 0.06445 ± 0.0043 | –
4100 kPa, Liquid | 0.06429 ± 0.0043 | –
4105 kPa, Liquid | 0.06425 ± 0.0043 | –
4110 kPa, Liquid | 0.06421 ± 0.0042 | –
4115 kPa, Liquid | 0.06418 ± 0.0042 | –
4120 kPa, Liquid | 0.06414 ± 0.0042 | –
4125 kPa, Liquid | 0.0641 ± 0.0042 | –
4130 kPa, Liquid | 0.06408 ± 0.0042 | –
4140 kPa, Liquid | 0.06408 ± 0.0042 | –
4150 kPa, Liquid | 0.06404 ± 0.0042 | –
4160 kPa, Liquid | 0.064 ± 0.0042 | –
4170 kPa, Liquid | 0.06396 ± 0.0042 | –
4180 kPa, Liquid | 0.06392 ± 0.0042 | –
4190 kPa, Liquid | 0.06394 ± 0.0042 | –
4200 kPa, Liquid | 0.06392 ± 0.0042 | –
4210 kPa, Liquid | 0.06392 ± 0.0042 | –
4220 kPa, Liquid | 0.06388 ± 0.0042 | –
4230 kPa, Liquid | 0.06388 ± 0.0042 | –
4240 kPa, Liquid | 0.06387 ± 0.0042 | –
4250 kPa, Liquid | 0.06387 ± 0.0042 | –
4260 kPa, Liquid | 0.0639 ± 0.0042 | –
4270 kPa, Liquid | 0.0639 ± 0.0042 | –
4280 kPa, Liquid | 0.0639 ± 0.0042 | –
4290 kPa, Liquid | 0.0639 ± 0.0042 | –
4300 kPa, Liquid | 0.06392 ± 0.0042 | –
4330 kPa, Liquid | 0.06396 ± 0.0042 | –
4400 kPa, Liquid | 0.0641 ± 0.0042 | –
4410 kPa, Liquid | 0.06416 ± 0.0042 | –
4477 kPa, Liquid | 0.06435 ± 0.0042 | –
4491 kPa, Liquid | 0.06439 ± 0.0042 | –
